Where a name gives a salt, the structure may show the parent alone.
Assays:
[1] = Dispersion stability in water (appearance); assay type: physicochemical; details: suspended in water at the same sorafenib concentration
Description: Based on the drug loading capacity and particle size, three compositions were selected for in vitro anti-leukemic activity studies (in Example 3) and were named as Sora-NP-1 to Sora-NP-3 (Table 2). Among them, Sora-NP-1 had the smallest particle size with the lowest sorafenib loading capacity. […] This provides indirect evidence that sorafenib molecules were stably encapsulated in the interior of Sora-NP. The excellent dispersion stability of Sora-NP compositions would be beneficial for their clinical applications.

[2] = system: patient-derived AML cells named Leu 14; test: Patient-derived AML xenograft mouse model; assay type: in vivo
Description: All animal experiments were performed according to the protocols approved by IACUC at the Biological Resource Centre, Singapore. A pre-clinical patient-derived liquid xenograft mouse model was established based on a previous report (Z. Her, et al., J. Hematol. Oncol. 2017, 10, 162). Briefly, NOD-scid II2rg^−/− (NSG) newborn pups were sub-lethally irradiated at 1 Gy and engrafted with patient-derived AML cells named Leu 14. When the proportion of human CD45^+ cells in peripheral blood reached around 10-15%, the mice were randomly divided into 3 groups. The first group received intravenous injections of isotonic dextrose solution containing Sora-NP-1 at a sorafenib dose of 0.4 mg kg^−1 twice weekly for 4 weeks. For comparison, another group of mice received intravenous injections of free sorafenib solution prepared in saline-DMSO mixture (95:5, v/v) at an equivalent dose. […] At selected time points, the proportion of human CD45^+ cells in the peripheral blood, spleen and bone marrow was examined by flow cytometry analysis using a LSR II flow cytometer (BD Biosciences).

MOLM-14 cells = test: In vitro anti-leukemic activity, CellTiter-Glo assay, and median-effect combination index; details: 3 days
Description: (§3) MOLM-14 and MV-4-11 cells (ATCC, USA) were maintained in RPMI 1640 media supplemented with 10% (v/v) fetal bovine serum (FBS) and 1% (v/v) penicillin/streptomycin. The cells seeded on white-walled 96-well plates (1×10^4 cells per well) were incubated in 100 μL of 10% FBS-supplemented media containing either sunitinib- or sorafenib-loaded nanoparticles and the respective free drugs at various concentrations. […] After treatment for 3 days, 100 μL of the CellTiter-Glo assay reagent was added to each well of the plates. After incubation for 10 min at 25° C., cellular luminescence was measured using a Tecan Infinite 200 microplate reader (Tecan Group, Switzerland). Results were expressed as percentages of the luminescence signal of analysed cells relative to untreated controls.

MV-4-11 cells = test: as above; assay type: cell-based; details: 3 days
Description: as §3

HUVEC cells = test: In vitro cell viability assay (CellTiter-Glo), normal cells; assay type: cell-based, human; details: 72 h
Description: (§1) The human AML cell line HL60, human embryonic kidney cell line HEK293 and primary human umbilical vein endothelial (HUVEC) cells were purchased from the American Type Culture Collection (ATCC). The human AML cell lines NB4 was kindly donated by the Cancer Science Institute, Singapore. All the AML cells were cultured in RPMI 1640 medium supplemented with 10% fetal bovine serum (FBS) and maintained in density of 2×10^5 to 1×10^6 cells/mL. HEK293 cells were cultured in DMEM medium supplemented with 10% FBS while HUVEC cells were maintained in EBM™-2 Endothelial Cell Growth Basal Medium supplemented with endothelial cell growth medium SingleQuots™ supplements and growth factors. All the cells were maintained in a humid incubator with 5% CO2 at 37° C.
(§2) All cells (HL60, NB4, HEK293 and HUVEC cells) were seeded at 1×10^4 cells per […] per well in 96-well plates. […] After drug treatment, the cell viability was evaluated using the CellTiter-Glo™ Luminescent Cell Viability Assay Kit (Promega, Madison, Wis.) following the manufacturer's instructions. The luminescence from each well was measured using a Tecan Infinite microplate reader (Tecan Group, Switzerland). The final cell viability values were expressed as percentages derived from the luminescence intensity from the treated cells relative to untreated cells. […]

HEK293 cells = test: as above; assay type: cell-based, human; details: 72 h
Description: as §1, §2

NB4 cells = test: Quantitative evaluation of differentiation in AML cells (CD11b, CD14, CD15 by flow cytometry); assay type: cell-based, human; details: three days, ATRA, PMA (100 ng/mL), A3D8 (0.6 μg/mL), EGCG (38 μM), HA equivalent
Description: AML cells were seeded at 1×10^5 cells in 1 mL per well in 24-well plates and were incubated for 2 h with 5% CO2 at 37° C. […] ATRA (1 mM), PMA (100 ng/mL) and A3D8 (0.6 μg/mL) were included as positive controls. After three days of incubation, the cells were harvested and examined for signs of differentiation by assessing cell surface antigen expression. To label the cell surface antigens, the cells were suspended in PBS (pH 7.4) containing 0.2% (v/v) BSA and then incubated at 4° C. for 30 min with mouse anti-human FITC-conjugated CD11b, Cy7-conjugated CD14 and Cy5-conjugated CD15 antibodies (2 μg/mL each). Mouse IgG1 isotype antibody was used as control. After that, the cells were washed three times with PBS containing 0.2% (v/v) BSA and the level of antibody binding was determined by flow cytometry using a fluorescence-activated cell sorter BD LSR II (BD Biosciences, Calif.). Each measurement comprised of acquisition of at least 1×10^4 cells and the analyses were considered as informative when adequate numbers of events (>100) were collected in the enumeration gates. To quantify the percentage of antigen-expressing cells, the cells were defined to be positive for the antigens if they fell within the gating region pre-set to include <2% of untreated control cells.

[3] = equivalent sorafenib concentrations
[4] = equivalent sunitinib concentrations

In the case of `CNC(=O)c1cc(Oc2ccc(NC(=O)Nc3ccc(Cl)c(C(F)(F)F)c3)cc2)ccn1` [free sorafenib, Sorafenib tosylate], the “Appearance of dispersion in water” value [1] is reported as “heavily flocculated and eventually precipitated”, the “AML cell proliferation in the peripheral blood (human CD45+ cells)” value ([2]; i.v., sorafenib dose 0.4 mg kg^−1 twice weekly for 4 weeks, versus untreated control) is reported as “only a slight delay of AML progression” and the “time at which treated mice started to die” value ([2]; sorafenib dose 0.4 mg kg^−1) is reported as 12 to 14 days. The “cells eradicated / reduction of the cell viability” value (MOLM-14 cells; 200 nM sorafenib) was ~14%, the “order of effectiveness (anti-leukemic activity)” value (“order of effectiveness” below) (MOLM-14 cells; [3]) was “Sora-NP-1>Sora-NP-2>Sora-NP-3>free sorafenib” and the “order of effectiveness” value (MV-4-11 cells; [3]) was “Sora-NP-1>Sora-NP-2>Sora-NP-3>free sorafenib”.

In the case of Epigallocatechin-3-gallate [EGCG], the “EGCG equivalent concentration range with greater toxicity than HA-EGCG (B)” value (HUVEC cells) is reported as 15 to 76 µM and the “EGCG equivalent concentration with greater toxicity than HA-EGCG (B)” value (HEK293 cells) is reported as 76 µM.

In the case of `CC1=C(/C=C/C(C)=C/C=C/C(C)=C/C(=O)O)C(C)(C)CCC1` [ATRA, all-trans retinoic acid], the “differentiation marker expression” value (NB4 cells) is reported as “greatest increase in the three antigen expression levels and the proportion of antigen-expressing cells”.

In the case of `CCN(CC)CCNC(=O)c1c(C)[nH]c(/C=C2\C(=O)Nc3ccc(F)cc32)c1C` [free sunitinib, Sunitinib malate], the “order of effectiveness” value (MOLM-14 cells; [4]) is reported as “Suni-NP-1>Suni-NP-2>free sunitinib>Suni-NP-3>Suni-NP-4” and the “order of effectiveness” value (MV-4-11 cells; [4]) is reported as “Suni-NP-1>Suni-NP-2>free sunitinib>Suni-NP-3>Suni-NP-4”.

From US20220047720A1, “CONJUGATES AND NANOPARTICLES OF HYALURONIC ACID AND EPIGALLOCATECHIN-3-O-GALLATE AND USES THEREOF” (Agency for Science, Technology and Research, priority 2018, published 2022)
